The values that follow come from PMC4700476, “Differential regulation by AMP and ADP of AMPK complexes containing different γ subunit isoforms” (Biochemical Journal, 2016).

For one experiment, the system named is rat hepatocytes. Also noted: method as in PMID 17855357. The note with it: cited from earlier work.
Experiment [1] deals with γ2-containing AMPK complexes in HEK-293 cells expressing FLAG–γ2. Nature of the experiment: Activation of AMPK complexes in intact cells (anti-FLAG IP kinase assay and pThr172 blot). It counts as cell-based, human. The note with it: γ2 complex; 60 min; phenformin 10 mM, berberine 300 μM, A23187 10 μM, A-769662 300 μM. On the procedure: (§1) HEK-293 cells expressing tetracycline-inducible human γ1, γ2 and γ3 with N-terminal FLAG tags were obtained by inserting the appropriate DNA into cells carrying a Flp recombinase target site with co-transfection of DNA encoding Flp recombinase; expression of the γ subunits was induced by adding tetracycline (1 μg·ml^−1) to the medium for 48 h.
(§2) HEK-293 cells were grown in Dulbecco's modified Eagle's medium (DMEM) containing 4.5 g/l glucose, 10% (v/v) FBS, 100 units/ml penicillin, 100 μg/ml streptomycin, 200 μg/ml hygromycin and 15 μg/ml blasticidin. The medium was replaced with medium containing 1 g/l glucose, 16 h before the treatments described in the text.
(§3) Cell lysates were made using the rapid lysis procedure. Lysates containing stably expressed recombinant FLAG-tagged γ subunits were immunoprecipitated from HEK-293 cell lysates (90 μg of lysate protein) by incubation at 4°C for 2 h on a roller mixer with 7.5 μl of EZview Red anti-FLAG M2 affinity gel (Sigma–Aldrich). After extensive washing, the immunoprecipitates (IPs) were assayed for AMPK activity on an orbital shaker as described previously except that the AMARA peptide substrate was used in all assays apart from those shown in Figures 3 and 4. The SAMS peptide was used in the latter because, for reasons that remain unclear, the degree of allosteric activation is always greater using this substrate.
(§4) Figure 2 Activation of FLAG–γ1,–γ2 or–γ3 by various AMPK activators Cells expressing FLAG–γ1,–γ2 or–γ3 were incubated with DMSO (vehicle), phenformin (10 mM), berberine (300 μM), A23187 (10 μM) or A-769662 (300 μM) for 60 min, AMPK complexes were immunoprecipitated using anti-FLAG antibodies and were analysed by kinase assays (upper panel) and Western blotting (lower panel). […] The absolute activities (nmol/min/mg of lysate protein) in the DMSO controls were: 0.16±0.01 (γ1), 0.24±0.01 (γ2) and 0.053±0.001 (γ3; means ± S.E.M., n=3).

The subject of experiment [2] is γ1-containing AMPK complexes in HEK-293 cells expressing FLAG–γ1. Described as above. It counts as cell-based, human. Conditions: γ1 complex; 60 min; phenformin 10 mM, berberine 300 μM, A23187 10 μM, A-769662 300 μM. On the procedure:
as §1, §2, §3, §4

The test system of experiment [3] is γ3-containing AMPK complexes in HEK-293 cells expressing FLAG–γ3. The description is as above. The note with it: for AMPK activation and Thr172 phosphorylation in intact cells: γ3 complex, 60 min, phenformin 10 mM, berberine 300 μM, A23187 10 μM, A-769662 300 μM. It counts as cell-based, human. How it is done:
as §1, §2, §3, §4

In the next experiment the test system is AMPK. Also on record: method as in PMID 24746562. The note with it: AMPK not phosphorylated on Thr172; cited from earlier work.
Experiment [4] concerns γ3-containing AMPK complexes in mouse skeletal muscle. Also noted: method as in PMID 25695398. Conditions: cited from earlier work.
Experiment [5] deals with γ1-containing AMPK complexes in mouse skeletal muscle. Also on record: method as in PMID 25695398. Conditions: cited from earlier work.

Each structure is given as a SMILES string.

Regarding `N#Cc1c(O)c2c(-c3ccc(-c4ccccc4O)cc3)csc2[nH]c1=O` [A-769662], the “increases in Thr172 phosphorylation” value with rat hepatocytes is listed as “negligible”. Also, the “phosphorylation of acetyl-CoA carboxylase (ACC)” value with rat hepatocytes was “marked phosphorylation”. Moreover, the “AMPK activation and Thr172 phosphorylation in intact cells” value in experiment [1] was “only modest increases”; in experiment [2] it was “did not significantly activate”; in experiment [3] it was “only modest increases”. Moreover, the “allosteric activation of AMPK” value in the experiment on AMPK is reported as more than 60 fold.
For `O=C(O)c1ccc2c3c1cccc3c(=O)n1c3ccccc3nc21` [STO-609], in experiment [3] (results not shown), the “effect on activation of γ3 complex by A23187” value was “completely blocked”.
`[H]/N=C(/N)N/C(=N/[H])NCCc1ccccc1` [phenformin]: the “AMPK activation and Thr172 phosphorylation in intact cells” value in experiment [1], in experiment [2] and in experiment [3] was “activated” in each case.
For the compound `NC(=O)c1ncn([C@@H]2O[C@H](CO)[C@@H](O)[C@H]2O)c1N` [AICAR, 5-aminoimidazole-4-carboxamide riboside], the “activation of γ3-containing complexes” value in experiment [4] was “activated both isoforms”. Further, the “activation of γ1-containing complexes” value in experiment [5] was “activated both isoforms”.
Consider `CNc1ccc2oc(C[C@H]3O[C@@]4(CC[C@H]3C)O[C@H]([C@H](C)C(=O)c3ccc[nH]3)[C@H](C)C[C@H]4C)nc2c1C(=O)O` [A23187], for which the “AMPK activation and Thr172 phosphorylation in intact cells” value in experiment [1], in experiment [2] and in experiment [3] was “activated” throughout.
`COc1ccc2cc3[n+](cc2c1OC)CCc1cc2c(cc1-3)OCO2` [berberine, Berberine chloride]: the “AMPK activation and Thr172 phosphorylation in intact cells” value in experiment [1], in experiment [2] and in experiment [3] was “activated” each time.
